The source of these data is patent US12059478B2, “Gene therapy” (Ospedale San Raffaele S.r.l., priority 2016, dated 2024).

A word on the IC50: it is the concentration that gives 50% inhibition.

Data set [1] concerns the target T1, ATR (Mus musculus, UniProt Q9JKK8).
T1 construct: endogenous in cells; host or cells: 3T3TopBP1-ER cells
The settings on record: 3T3TopBP1-ER cells; cited from earlier work.

Data set [2] addresses ATR (Homo sapiens, UniProt Q13535, F134E). The note with it: cited from earlier work.
For another data set, the target named is ATM kinase (Homo sapiens, UniProt Q13315). The settings on record: cited from earlier work.
For data set [3], the system named is human CD45+ cells in the peripheral blood. Briefly: Transplantation of transduced human HSPC in NSG mice (engraftment). The note with it: transient inhibition during ex vivo transduction.
In the next data set the test system is human CD34+ HSPC. In words: Annexin V apoptosis assay after transduction. Type of data set: cell-based. From the text: Human CD34+ hematopoietic stem and progenitor cells (HSPC) and CD4+ T cells were isolated through magnetic bead selection according to the manufacturer's instructions (Milteny) from umbilical cord blood (CB) collected upon informed consent from healthy volunteers according to the Institutional Ethical Committee approved protocol (TIGET01). Otherwise, CB and bone marrow (BM)-derived CD34+ were directly purchased from Lonza. Cells were purified and cultured as described in Petrillo et al. (Petrillo, C. et al. (2015) Molecular Therapy 23: 352-362). K562 and Hela cell lines were plated in complete Iscove's modified Dulbecco's medium (Euroclone). HL-60 cells were grown and transduced in complete RPMI. HCT-116 cells were grown and transduced in complete Dulbecco's Modified Eagle Medium (DMEM). Murine Lin− cells were isolated through magnetic bead selection according to the manufacturer's instructions (Miltenyi) from bone marrow of euthanised C57/BL6 mice. For the clinical standard double-hit transduction protocol, cells were washed 16 h after the first vector exposure, left to recover in cytokine-supplemented medium for 10 h and re-exposed to the second hit of vector for another 16 h before transplantation. […] All cells were transduced at the indicated multiplicity of infection (MOI) as calculated by titration of vector stocks on 293T cells for Lentiviral and Retroviral vectors. Transductions with the AAV6 vectors were performed at an MOI of 10000 as calculated by titration of the vector preparation expressed in vector genome per mL (vg/mL). […]
Human HSPC fluorescence associated cell sorting was performed as described in Petrillo et al. (Petrillo, C. et al. (2015) Molecular Therapy 23: 352-362). All cytometric analyses were performed using the FACS […] instrument and LSRFortessa instruments (BD Biosciences, San Jose, CA) and analysed with the FACS Express software (De Novo Software, Glendale, CA). GFP expression in transduced cells was measured 5-7 days post-transduction. […]

For data set [4] the following is noted: DMSO, ethanol; cited from earlier work.
The test system of data set [5] is human CB-CD34+ cells. In words: Cell proliferation dye assay. The data set is classed as cell-based. The note with it: LV MOI 100, 2 days.
The next data set relates to mPB CD34+ cells. Briefly: Two-hit transduction protocol in mPB CD34+ cells with clinical-grade LV (apoptosis, CFC, cell counts, p21). Type of data set: cell-based, human. The settings on record: two hits MOI 100 clinical-grade LV, 10 μM. From the text:
(§1) Human CD34+ hematopoietic stem and progenitor cells (HSPC) and CD4+ T cells were isolated through magnetic bead selection according to the manufacturer's instructions (Milteny) from umbilical cord blood (CB) collected upon informed consent from healthy volunteers according to the Institutional Ethical Committee approved protocol (TIGET01). Otherwise, CB and bone marrow (BM)-derived CD34+ were directly purchased from Lonza. Cells were purified and cultured as described in Petrillo et al. (Petrillo, C. et al. (2015) Molecular Therapy 23: 352-362). K562 and Hela cell lines were plated in complete Iscove's modified Dulbecco's medium (Euroclone). […] All cells were transduced at the indicated multiplicity of infection (MOI) as calculated by titration of vector stocks on 293T cells for Lentiviral and Retroviral vectors. Transductions with the AAV6 vectors were performed at an MOI of 10000 as calculated by titration of the vector preparation expressed in vector genome per mL (vg/mL). […]
CFC assay cells were performed as described in Petrillo et al and Gentner et al. (Petrillo, C. et al. (2015) Molecular Therapy 23: 352-362; Gentner, B. et al. (2010) Science Translational Medicine 2: 58ra84). After ten days, colonies were identified as erythroid or myeloid by morphological criteria, counted, plucked and pooled into sets of three to obtain DNA for quantification of vector content. […]

In data set [6] the test system is Interferon stimulated genes (IRF7, OAS1, ISG15) in human CB-CD34+. In words: Interferon stimulated gene mRNA induction. The data set is classed as cell-based. The note with it: RV MOI 100, 48 h, Raltegravir and KU55933 10 μM, AZT 25 μM.
Text: as §1, with “(Euroclone). HL-60 cells were grown and transduced in complete RPMI. HCT-116 cells were grown and transduced in complete Dulbecco's Modified Eagle Medium (DMEM). Murine Lin− cells were isolated through magnetic bead selection according to the manufacturer's instructions (Miltenyi) from bone marrow of euthanised C57/BL6 mice.” for “(Euroclone).”

Data set [7] concerns p53 signalling (p21 mRNA) in human CD34+ HSPC. Briefly: p21 mRNA induction (p53 signalling) after vector transduction, Taqman. Type of data set: cell-based. The settings on record: for LV-induced p21 mRNA in presence of the inhibitor: CB-CD34+, LV MOI 100, inhibitor 10 μM, 48 h. From the text: Human CD34+ hematopoietic stem and progenitor cells (HSPC) and CD4+ T cells were isolated through magnetic bead selection according to the manufacturer's instructions (Milteny) from umbilical cord blood (CB) collected upon informed consent from healthy volunteers according to the Institutional Ethical Committee approved protocol (TIGET01). Otherwise, CB and bone marrow (BM)-derived CD34+ were directly purchased from Lonza. Cells were purified and cultured as described in Petrillo et al. (Petrillo, C. et al. (2015) Molecular Therapy 23: 352-362). K562 and Hela cell lines were plated in complete Iscove's modified Dulbecco's medium (Euroclone). HL-60 cells were grown and transduced in complete RPMI. HCT-116 cells were grown and transduced in complete Dulbecco's Modified Eagle Medium (DMEM). Murine Lin− cells were isolated through magnetic bead selection according to the manufacturer's instructions (Miltenyi) from bone marrow of euthanised C57/BL6 mice. For the clinical standard double-hit transduction protocol, cells were washed 16 h after the first vector exposure, left to recover in cytokine-supplemented medium for 10 h and re-exposed to the second hit of vector for another 16 h before transplantation. All animal procedures were performed according to protocols approved by the Animal Care and Use Committee of the Ospedale San Raffaele (IACUC 611) and according to Italian law. All cells were transduced at the indicated multiplicity of infection (MOI) as calculated by titration of vector stocks on 293T cells for Lentiviral and Retroviral vectors. Transductions with the AAV6 vectors were performed at an MOI of 10000 as calculated by titration of the vector preparation expressed in vector genome per mL (vg/mL). All the transductions were performed at 1×10^6 cells/mL concentration. In the experiment with anti-retroviral inhibitors, the drugs were added together with the vector. Raltegravir and 3TC were used at 10 μM, and AZT at 25 μM. In the ATM inhibition experiment, single hit of the ATM inhibitor KU55933 (Selleck Chemicals) was added to the cells 2 hours before the transduction at 10 μM concentration. All cells were maintained in a 5% CO2 humidified atmosphere at 37° C.
Total RNA was extracted with the RNeasy Plus Micro kit or RNeasy Micro Kit (Qiagen) and Reverse transcription was performed using SuperScriptVILO cDNA Synthesis Kit (ThermoFisher Scientific) according to the manufacturers' instructions. Gene expression analysis was performed by Taqman probe (Thermo Fisher, Table 6) as described in Petrillo et al. (Petrillo, C. et al. (2015) Molecular Therapy 23: 352-362), human HPRT1 or murine Hprt were used to normalise the total quantity of human or mouse cDNA input respectively.
In general terms: In qPCR the cycle at which signal appears reflects the starting amount.

For data set [8], the system named is human CB-CD34+ cells. In words: Transduction efficiency (GFP expression, integrated vector copy number). The data set is classed as cell-based. The settings on record: LV MOI 100, 10 μM, 14 days.
Text: as §1
Human HSPC fluorescence associated cell sorting was performed as described in Petrillo et al. (Petrillo, C. et al. (2015) Molecular Therapy 23: 352-362). All cytometric analyses were performed using the FACS […] instrument and LSRFortessa instruments (BD Biosciences, San Jose, CA) and analysed with the FACS Express software (De Novo Software, Glendale, CA). […]

The mark [9] stands for this setting: CB-CD34+ exposed to AAV-6 MOI 10000, 10 μM.

Sequence of ATR (Homo sapiens, UniProt Q13535, F134E) (Q13535 whole entry F134E): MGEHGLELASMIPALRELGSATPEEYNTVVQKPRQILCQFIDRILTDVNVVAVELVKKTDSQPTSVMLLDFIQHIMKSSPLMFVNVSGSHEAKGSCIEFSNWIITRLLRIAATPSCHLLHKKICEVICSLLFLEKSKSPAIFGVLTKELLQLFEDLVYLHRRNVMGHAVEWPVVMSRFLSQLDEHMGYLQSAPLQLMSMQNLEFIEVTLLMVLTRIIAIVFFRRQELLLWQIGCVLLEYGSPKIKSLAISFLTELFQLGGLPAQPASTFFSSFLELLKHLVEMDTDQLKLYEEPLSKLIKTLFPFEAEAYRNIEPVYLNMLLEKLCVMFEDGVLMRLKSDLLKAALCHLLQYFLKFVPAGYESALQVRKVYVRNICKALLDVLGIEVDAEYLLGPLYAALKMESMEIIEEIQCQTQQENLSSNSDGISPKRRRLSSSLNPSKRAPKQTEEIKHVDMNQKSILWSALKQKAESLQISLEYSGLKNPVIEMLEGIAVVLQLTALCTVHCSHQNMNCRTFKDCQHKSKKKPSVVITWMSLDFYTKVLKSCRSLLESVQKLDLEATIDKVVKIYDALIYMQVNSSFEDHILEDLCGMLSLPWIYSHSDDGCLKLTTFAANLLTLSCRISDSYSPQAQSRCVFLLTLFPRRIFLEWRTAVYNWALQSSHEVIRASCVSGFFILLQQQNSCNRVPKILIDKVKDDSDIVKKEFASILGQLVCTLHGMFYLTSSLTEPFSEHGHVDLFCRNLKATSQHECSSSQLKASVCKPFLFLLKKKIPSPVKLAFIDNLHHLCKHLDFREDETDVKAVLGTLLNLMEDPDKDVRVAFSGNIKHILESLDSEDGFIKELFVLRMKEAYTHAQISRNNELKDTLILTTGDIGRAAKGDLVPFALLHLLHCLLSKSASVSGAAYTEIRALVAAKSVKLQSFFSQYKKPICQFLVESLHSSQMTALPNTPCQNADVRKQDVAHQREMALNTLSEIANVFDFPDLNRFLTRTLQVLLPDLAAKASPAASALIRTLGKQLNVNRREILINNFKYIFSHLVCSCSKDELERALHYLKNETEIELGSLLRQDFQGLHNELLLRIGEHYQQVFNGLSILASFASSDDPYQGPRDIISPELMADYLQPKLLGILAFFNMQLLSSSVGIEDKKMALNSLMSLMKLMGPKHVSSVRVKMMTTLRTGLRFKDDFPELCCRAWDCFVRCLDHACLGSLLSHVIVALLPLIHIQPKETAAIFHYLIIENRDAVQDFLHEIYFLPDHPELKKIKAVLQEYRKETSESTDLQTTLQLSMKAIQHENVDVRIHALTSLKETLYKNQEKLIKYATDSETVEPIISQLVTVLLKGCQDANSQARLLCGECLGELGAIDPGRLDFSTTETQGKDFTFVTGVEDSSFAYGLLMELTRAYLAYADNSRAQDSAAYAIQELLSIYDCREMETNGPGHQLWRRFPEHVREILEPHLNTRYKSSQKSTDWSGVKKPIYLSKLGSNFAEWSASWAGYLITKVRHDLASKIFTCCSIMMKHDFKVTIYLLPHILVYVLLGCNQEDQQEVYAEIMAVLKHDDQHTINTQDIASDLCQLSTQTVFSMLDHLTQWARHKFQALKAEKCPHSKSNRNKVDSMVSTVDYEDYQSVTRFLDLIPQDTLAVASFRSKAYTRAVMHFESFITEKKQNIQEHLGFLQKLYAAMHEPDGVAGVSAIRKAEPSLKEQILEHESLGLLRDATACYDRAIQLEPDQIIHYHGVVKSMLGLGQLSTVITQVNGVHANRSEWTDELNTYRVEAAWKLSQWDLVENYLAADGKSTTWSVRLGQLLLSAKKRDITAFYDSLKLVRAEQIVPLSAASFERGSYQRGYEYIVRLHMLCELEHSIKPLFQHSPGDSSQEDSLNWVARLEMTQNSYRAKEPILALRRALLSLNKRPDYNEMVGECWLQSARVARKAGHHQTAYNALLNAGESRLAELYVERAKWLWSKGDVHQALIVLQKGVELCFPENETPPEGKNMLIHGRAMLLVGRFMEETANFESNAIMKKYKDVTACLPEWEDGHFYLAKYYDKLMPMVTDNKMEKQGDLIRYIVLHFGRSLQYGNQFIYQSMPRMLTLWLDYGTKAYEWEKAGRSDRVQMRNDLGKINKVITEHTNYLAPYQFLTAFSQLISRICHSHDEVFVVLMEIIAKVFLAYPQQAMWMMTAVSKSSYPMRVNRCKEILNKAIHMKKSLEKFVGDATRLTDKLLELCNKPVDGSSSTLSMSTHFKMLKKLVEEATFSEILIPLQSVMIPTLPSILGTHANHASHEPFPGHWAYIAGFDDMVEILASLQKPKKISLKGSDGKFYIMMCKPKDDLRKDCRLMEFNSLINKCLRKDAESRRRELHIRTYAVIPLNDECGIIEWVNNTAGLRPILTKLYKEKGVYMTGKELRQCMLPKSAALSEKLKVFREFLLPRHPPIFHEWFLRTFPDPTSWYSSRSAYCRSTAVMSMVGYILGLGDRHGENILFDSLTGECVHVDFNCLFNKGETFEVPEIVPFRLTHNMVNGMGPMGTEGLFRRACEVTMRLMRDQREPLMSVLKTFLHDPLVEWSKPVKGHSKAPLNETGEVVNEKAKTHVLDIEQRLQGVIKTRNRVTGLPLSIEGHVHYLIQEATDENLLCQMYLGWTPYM
Sequence of ATR (Homo sapiens, UniProt Q13535, F134E) (Q8WXE1 whole entry partner): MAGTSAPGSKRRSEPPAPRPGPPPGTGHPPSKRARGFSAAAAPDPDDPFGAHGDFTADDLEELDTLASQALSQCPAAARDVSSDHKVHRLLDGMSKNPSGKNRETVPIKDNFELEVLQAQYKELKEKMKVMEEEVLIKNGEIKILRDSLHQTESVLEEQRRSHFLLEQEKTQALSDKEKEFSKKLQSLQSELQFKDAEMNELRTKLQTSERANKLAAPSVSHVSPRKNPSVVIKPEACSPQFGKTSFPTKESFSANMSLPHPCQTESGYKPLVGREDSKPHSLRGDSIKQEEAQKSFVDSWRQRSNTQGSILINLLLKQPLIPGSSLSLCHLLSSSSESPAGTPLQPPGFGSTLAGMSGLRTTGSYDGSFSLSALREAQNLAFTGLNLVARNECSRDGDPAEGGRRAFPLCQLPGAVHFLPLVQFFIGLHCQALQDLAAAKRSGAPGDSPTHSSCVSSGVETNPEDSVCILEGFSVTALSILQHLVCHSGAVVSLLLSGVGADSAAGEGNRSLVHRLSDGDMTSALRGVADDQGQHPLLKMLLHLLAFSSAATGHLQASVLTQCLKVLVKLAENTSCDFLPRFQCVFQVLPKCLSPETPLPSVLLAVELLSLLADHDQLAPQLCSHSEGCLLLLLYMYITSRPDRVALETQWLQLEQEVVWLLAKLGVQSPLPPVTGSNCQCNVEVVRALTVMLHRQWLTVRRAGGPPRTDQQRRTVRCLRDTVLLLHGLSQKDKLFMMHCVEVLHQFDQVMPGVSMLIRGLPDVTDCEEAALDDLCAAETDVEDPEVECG

Regarding `Cn1c(=O)n(-c2ccc(C(C)(C)C#N)cc2)c2c3cc(-c4cnc5ccccc5c4)ccc3ncc21` [BEZ235, Dactolisib], on ATR [1], the IC50 was approximately 21 nM.

`O=C(NC(NC(=S)Nc1ccc(F)c([N+](=O)[O-])c1)C(Cl)(Cl)Cl)C(c1ccccc1)c1ccccc1` (centres unmarked) [CGK 733]: the IC50 on ATR [2] and at ATM kinase was approximately 200 nM in each case.

As to `COc1cc2ncnc(-n3nc(-c4ccccn4)nc3N)c2cc1OC` [CP-466722], the “Effect on ATR” value at ATR [2] is “does not affect ATR”. Further, the “ATM kinase inhibition” value on ATM kinase was “potent and reversible ATM kinase inhibitor”.

On to `O=c1cc(-c2cccc3c2Sc2ccccc2S3)oc(N2CCOCC2)c1` [KU-55933], for which the “Improvement of LV-exposed HSPC engraftment” value in [3] is given as “around 25%”. Also, in the data set on human CD34+ HSPC (setting [9]), the “AAV-6-induced apoptosis under ATM inhibition” value is on record as “rescued”. The “LV-induced apoptosis in presence of the inhibitor” value in the data set on human CD34+ HSPC (CB-CD34+, LV MOI 100, inhibitor 10 μM, 48 h) is “partially abrogated”. For the same molecule, the Solubility result in data set [4] was “soluble in DMSO and ethanol”. Besides, the “Proliferation delay of LV-transduced HSPC under ATM inhibition” value in the data set with human CB-CD34+ cells [5] is recorded as “did not affect”. The “Impact of ATM inhibition on apoptosis, colony output, cell counts in culture and p21 induction” value in the data set with mPB CD34+ cells is on record as “Positive impact”. Also, the “γRV-mediated ISG induction in presence of the inhibitor” value in [6] was “no impact”. Besides, the “AAV-6-induced p21 mRNA under ATM inhibition” value in data set [7] (setting [9]) is listed as “rescued”. The “LV-induced p21 mRNA in presence of the inhibitor” value in data set [7] was “significantly reduced”.

Turning to `Cc1nnc(C(=O)NC(C)(C)c2nc(C(=O)NCc3ccc(F)cc3)c(O)c(=O)n2C)o1` [Raltegravir], the “LV integration (VCN) in presence of integrase inhibitor” value in the data set on human CB-CD34+ cells [8] is reported as “efficient block”. Moreover, the “γRV-mediated ISG induction in presence of the inhibitor” value in data set [6] was “occurred also”. In addition, in data set [7], the “LV-induced p21 mRNA in presence of the inhibitor” value is “still occurred”.

B1: GSE56: dominant negative form of p53 (SEQ ID NO: 6), over-expressed from a LV (protein, listed as Homo sapiens)
chain: CPGRDRRTEEENFRKKEEHCPELPPGSAKRALPTSTSSSPQQKKKPLDGEYFTLKIRGRERFEMFRELNEALELKDARAAEESGDSRAHSSYPK
Turning to B1, the “Apoptosis upon a second round of transduction” value in the data set on human CD34+ HSPC (GSE56-expressing HSPC, 48 h after second hit) is on record as “reduced apoptosis”. Moreover, the “p21 induction upon a second round of LV or AAV6 transduction” value in [7] (GSE56-expressing CB-CD34+ vs control transduced) is reported as “completely prevented”. In data set [7] (GSE56-overexpressing HSPC), the “p53 signalling upon DNA damage by Captothecin (CPT)” value is “efficiently block p53 signalling”.
